Data set [1] can be described thus: Hepatic microsomal stability, HLM. It is filed as in vitro ADME, human. The note with it: for perc_remaining / t_half / perc_remaining_no_cofactor / microsomal CLint / clint: In vitro human liver microsomal stability; for perc_remaining_no_cofactor: no cofactor; for microsomal CLint: liver microsomes.
A short description of data set [2]: In vitro human hepatocyte stability. It is filed as in vitro ADME. From the text:
(§1) Supplement media-1.zip/Hepatocyte_Stability.csv, table | column: clint; t_half

Data set [3] is described as follows: In vitro mouse hepatocyte stability. In kind it is in vitro ADME.
From the text: as §1

The nature of data set [4]: Protein binding. It is filed as in vitro ADME. The source says:
Supplement media-1.zip/Protein_Binding.csv, table | column: fu; perc_bound; perc_free; perc_recovered

In data set [5] the target is T1, H1 (h) (Homo sapiens, UniProt P35367).
T1 construct: purchased Eurofins Cerep (SafetyScreen44), recognised from the panel format
T1 sequence (P35367 whole entry): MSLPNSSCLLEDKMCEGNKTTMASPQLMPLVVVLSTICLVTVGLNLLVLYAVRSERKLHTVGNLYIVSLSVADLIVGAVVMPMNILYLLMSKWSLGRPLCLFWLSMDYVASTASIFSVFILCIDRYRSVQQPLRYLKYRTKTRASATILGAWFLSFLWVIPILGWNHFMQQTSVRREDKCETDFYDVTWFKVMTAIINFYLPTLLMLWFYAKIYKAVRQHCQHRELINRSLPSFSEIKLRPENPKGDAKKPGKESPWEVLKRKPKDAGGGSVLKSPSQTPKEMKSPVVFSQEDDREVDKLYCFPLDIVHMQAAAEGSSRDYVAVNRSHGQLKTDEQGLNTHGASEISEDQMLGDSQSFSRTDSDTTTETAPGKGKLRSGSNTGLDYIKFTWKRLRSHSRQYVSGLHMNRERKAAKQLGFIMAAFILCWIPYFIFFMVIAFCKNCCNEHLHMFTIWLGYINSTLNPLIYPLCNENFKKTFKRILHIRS
The data set is described as follows: In vitro CEREP profiling, H1 (h) (antagonist radioligand). It is filed as binding. Particulars: test compound concentration 10 uM. The source says:
(§2) Supplement media-1.zip/Safety_Panel_Profile.csv, table | column: perc_inhibition

Data set [6] addresses T2, MAO-A (Rattus norvegicus, UniProt P21396).
T2 construct: purchased Eurofins Cerep (SafetyScreen44), recognised from the panel format
T2 sequence (P21396 1-526): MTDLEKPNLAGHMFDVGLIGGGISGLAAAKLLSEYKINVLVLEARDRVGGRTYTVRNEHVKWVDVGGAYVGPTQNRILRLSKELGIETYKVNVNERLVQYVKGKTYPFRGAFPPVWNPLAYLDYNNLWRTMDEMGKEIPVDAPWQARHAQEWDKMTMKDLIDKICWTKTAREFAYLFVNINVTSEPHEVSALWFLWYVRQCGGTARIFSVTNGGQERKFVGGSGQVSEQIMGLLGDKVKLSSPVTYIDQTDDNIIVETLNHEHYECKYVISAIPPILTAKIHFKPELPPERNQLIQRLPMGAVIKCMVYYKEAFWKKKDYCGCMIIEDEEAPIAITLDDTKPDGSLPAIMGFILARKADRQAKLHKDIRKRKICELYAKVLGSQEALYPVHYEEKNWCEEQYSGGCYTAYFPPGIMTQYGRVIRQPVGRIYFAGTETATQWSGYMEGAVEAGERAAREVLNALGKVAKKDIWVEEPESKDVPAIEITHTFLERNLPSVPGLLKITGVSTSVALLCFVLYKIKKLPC
Description: In vitro CEREP profiling, MAO-A (antagonist radioligand). In kind it is binding. The note with it: test compound concentration 10 uM.
From the text: as §2

The target in data set [7] is T3, PDE4D2 (h) (Homo sapiens, UniProt Q08499).
T3 construct: purchased Eurofins Cerep (SafetyScreen44), recognised from the panel format
T3 sequence (Q08499 303-809): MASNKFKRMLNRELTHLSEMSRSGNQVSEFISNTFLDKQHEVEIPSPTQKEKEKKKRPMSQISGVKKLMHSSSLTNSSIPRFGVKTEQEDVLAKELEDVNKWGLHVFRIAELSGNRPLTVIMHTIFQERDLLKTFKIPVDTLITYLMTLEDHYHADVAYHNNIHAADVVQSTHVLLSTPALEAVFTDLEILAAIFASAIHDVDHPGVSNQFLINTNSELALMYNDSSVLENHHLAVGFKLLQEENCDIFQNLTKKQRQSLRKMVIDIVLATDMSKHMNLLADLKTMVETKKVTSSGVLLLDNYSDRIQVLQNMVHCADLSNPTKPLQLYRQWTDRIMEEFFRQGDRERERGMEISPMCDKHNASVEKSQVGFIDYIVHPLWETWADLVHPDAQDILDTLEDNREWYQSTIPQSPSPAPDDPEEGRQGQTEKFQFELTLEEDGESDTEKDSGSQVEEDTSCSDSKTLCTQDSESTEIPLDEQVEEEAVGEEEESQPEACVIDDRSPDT
The data set is described as follows: In vitro CEREP profiling, PDE4D2 (h). It is filed as biochemical. Particulars: test compound concentration 10 uM, Enzyme and Cell-based assays.
From the text: as §2

The subject of data set [8] is AR(h). The data set is described as follows: In vitro CEREP profiling, AR(h) (agonist radioligand). It is filed as binding, human. The note with it: test compound concentration 10 uM.
From the text: as §2

The target in data set [9] is T4, V1a (h) (Homo sapiens, UniProt P37288).
T4 construct: purchased Eurofins Cerep (SafetyScreen44), recognised from the panel format
T4 sequence (P37288 whole entry): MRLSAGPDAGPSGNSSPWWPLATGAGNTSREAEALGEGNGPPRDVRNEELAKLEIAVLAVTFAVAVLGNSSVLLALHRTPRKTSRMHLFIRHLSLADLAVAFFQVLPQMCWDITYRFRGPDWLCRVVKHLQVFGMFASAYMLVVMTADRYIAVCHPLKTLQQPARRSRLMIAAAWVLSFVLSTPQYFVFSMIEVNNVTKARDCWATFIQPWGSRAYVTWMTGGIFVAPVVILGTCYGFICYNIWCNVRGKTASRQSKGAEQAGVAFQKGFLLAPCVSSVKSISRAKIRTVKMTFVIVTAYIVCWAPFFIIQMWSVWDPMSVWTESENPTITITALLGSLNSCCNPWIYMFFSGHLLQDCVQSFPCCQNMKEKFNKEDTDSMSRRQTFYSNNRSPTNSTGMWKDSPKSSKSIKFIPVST
The data set is described as follows: In vitro CEREP profiling, V1a (h) (agonist radioligand). It is filed as binding. Particulars: test compound concentration 10 uM.
From the text: as §2

Data set [10] deals with Ca2+ channel (L, dihydropyridine site). The data set is described as follows: In vitro CEREP profiling, Ca2+ channel (L, dihydropyridine site) (antagonist radioligand). In kind it is binding. The note with it: test compound concentration 10 uM.
From the text: as §2

For data set [11], the target named is T5, mu (MOP) (h) (Homo sapiens, UniProt P35372).
T5 construct: purchased Eurofins Cerep (SafetyScreen44), recognised from the panel format
T5 sequence (P35372 whole entry): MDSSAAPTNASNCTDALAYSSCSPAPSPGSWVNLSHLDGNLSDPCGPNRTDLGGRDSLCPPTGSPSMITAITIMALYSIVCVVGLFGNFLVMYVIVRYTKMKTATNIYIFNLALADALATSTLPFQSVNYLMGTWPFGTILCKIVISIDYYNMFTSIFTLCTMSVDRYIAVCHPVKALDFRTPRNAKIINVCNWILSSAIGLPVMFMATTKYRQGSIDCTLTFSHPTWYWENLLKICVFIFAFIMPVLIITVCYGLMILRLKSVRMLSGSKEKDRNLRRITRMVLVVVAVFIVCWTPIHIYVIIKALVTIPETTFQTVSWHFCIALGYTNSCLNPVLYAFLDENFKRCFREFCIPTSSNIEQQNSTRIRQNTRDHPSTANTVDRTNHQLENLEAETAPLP
Description: In vitro CEREP profiling, mu (MOP) (h) (agonist radioligand). The note with it: test compound concentration 10 uM. It is filed as binding.
From the text: as §2

The test system of data set [12] is KV channel. Description: In vitro CEREP profiling, KV channel (antagonist radioligand). It is filed as binding. The note with it: test compound concentration 10 uM.
From the text: as §2

Data set [13] deals with T6, ETA (h) (Homo sapiens, UniProt P25101).
T6 construct: purchased Eurofins Cerep (SafetyScreen44), recognised from the panel format
T6 sequence (P25101 21-427): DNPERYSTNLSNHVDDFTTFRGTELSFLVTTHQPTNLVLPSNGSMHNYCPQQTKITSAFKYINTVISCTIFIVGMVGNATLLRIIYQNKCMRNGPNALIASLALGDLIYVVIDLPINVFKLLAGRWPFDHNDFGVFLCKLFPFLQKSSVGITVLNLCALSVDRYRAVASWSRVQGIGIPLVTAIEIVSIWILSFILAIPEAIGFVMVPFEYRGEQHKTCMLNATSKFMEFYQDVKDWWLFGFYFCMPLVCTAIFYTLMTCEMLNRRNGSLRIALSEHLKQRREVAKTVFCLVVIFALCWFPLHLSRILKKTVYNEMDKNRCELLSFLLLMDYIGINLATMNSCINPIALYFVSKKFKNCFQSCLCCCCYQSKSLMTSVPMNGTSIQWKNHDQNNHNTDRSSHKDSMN
The data set is described as follows: In vitro CEREP profiling, ETA (h) (agonist radioligand). It is filed as binding. Particulars: test compound 10 uM.
From the text: as §2

Data set [14] deals with T7, norepinephrine transporter (h) (Homo sapiens, UniProt P23975).
T7 construct: purchased Eurofins Cerep (SafetyScreen44), recognised from the panel format
T7 sequence (P23975 whole entry): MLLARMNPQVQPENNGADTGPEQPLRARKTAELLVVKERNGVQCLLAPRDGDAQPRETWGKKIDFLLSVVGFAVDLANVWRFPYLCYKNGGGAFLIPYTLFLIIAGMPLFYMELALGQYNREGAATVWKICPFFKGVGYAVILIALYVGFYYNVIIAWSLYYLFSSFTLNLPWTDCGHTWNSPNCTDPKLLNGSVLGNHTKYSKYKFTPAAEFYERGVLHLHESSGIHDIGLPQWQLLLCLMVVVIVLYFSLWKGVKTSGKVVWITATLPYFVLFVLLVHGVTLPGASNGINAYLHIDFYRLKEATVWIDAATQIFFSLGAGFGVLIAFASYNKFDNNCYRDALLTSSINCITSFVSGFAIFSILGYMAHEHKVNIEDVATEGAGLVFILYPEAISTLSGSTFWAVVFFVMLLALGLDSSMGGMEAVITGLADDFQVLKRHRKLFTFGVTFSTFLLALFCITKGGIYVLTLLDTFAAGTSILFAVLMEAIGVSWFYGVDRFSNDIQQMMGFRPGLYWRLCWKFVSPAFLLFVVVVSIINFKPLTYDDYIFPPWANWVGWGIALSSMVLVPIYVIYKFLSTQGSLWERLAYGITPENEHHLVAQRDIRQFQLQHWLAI
The data set is described as follows: In vitro CEREP profiling, norepinephrine transporter (h) (antagonist radioligand). In kind it is binding. Particulars: test compound concentration 10 uM.
From the text: as §2

Data set [15] relates to NMDA. Description: In vitro CEREP profiling, NMDA (antagonist radioligand). Particulars: test compound concentration 10 uM. In kind it is binding.
From the text: as §2

Data set [16] is described as follows: In vitro dog liver microsomal stability. In kind it is in vitro ADME. From the text: Supplement media-1.zip/Hepatic_Microsomal_Stability.csv, table | column: clint; t_half
The subject of data set [17] is MERS-CoV. Description: microbe, parasite or virus in culture. It is filed as cell-based.
The mark [18] stands for this setting: In vitro dog plasma protein binding.
Where [19] appears, read: In vitro fetal calf serum protein binding.
Where [20] appears, read: In vitro human plasma protein binding.
Where [21] appears, read: In vitro mouse plasma protein binding.
Where [22] appears, read: In vitro rat plasma protein binding.
[23] abbreviates: read-out: perc_inhibition (% inhibition of the binding of a ligand specific for each target).
[24] abbreviates: read-out: perc_inhibition, % inhibition of the binding of a ligand specific for each target.
[25] abbreviates: Middle East respiratory syndrome-related coronavirus, VeroE6/TMPRSS2.

Where “and” joins values, the source holds several entries; their conditions need not be identical. Identical values can stand only once.

With `CC(C)C(Nc1ncnc2[nH]ccc12)c1ccc2c(c1)S(=O)(=O)CCC2` (stereo not shown) [ASAP-0008327], in data set [1], the perc_remaining stood at 53.0%, the t_half is reported as 44.7 min and the perc_remaining_no_cofactor amounted to 99.0%. Besides, the microsomal CLint in data set [1] (human) amounted to 37 µL/min/mg.
With `COc1ccc([C@@H](Cc2nnn[nH]2)NC(=O)c2ncnc3[nH]ccc23)cc1` [ASAP-0008340], in data set [1], the clint came to 5.0 µL/min/mg, the perc_remaining turned out to be 86.0%, the t_half worked out at 313.8 min and the perc_remaining_no_cofactor was 110.0%.
With `CC(C)[C@@H](Nc1ncnc2[nH]c(-c3cnn(C)c3C#N)cc12)c1ccc2c(n1)OCCO2` [ASAP-0008418], in data set [1], the clint was 59.0 µL/min/mg and 56.0 µL/min/mg; the perc_remaining was 34.0% and 36.0%; the t_half was 28.1 min and 29.7 min; the perc_remaining_no_cofactor is 98.0% and 104.0%.
Consider `Cn1ncc(-c2cc3c(N[C@@H](c4ccc5c(n4)OCCO5)C(C)(C)C)ncnc3[nH]2)c1C#N` [ASAP-0011221], for which the clint worked out at 283.0 µL/min/mg in data set [1], 171.0 uL/min/1E6 cells in data set [2], 292.0 uL/min/1E6 cells in data set [3] and 17.8 µL/min/mg in data set [16]. Besides, the perc_remaining in [1] is recorded as 1.0%. For the same compound, the t_half in data set [1] is listed as 5.9 min; in data set [2] it was 4.04 min; in data set [3], 2.37 min; in data set [16], 38.8 min. For the same compound, in data set [1], the perc_remaining_no_cofactor worked out at 85.0%. The fu in data set [4] (setting [18]) is on record as 0.012; in data set [4] (setting [19]), 0.021; in [4] (setting [20]) it was 0.006; in [4] (setting [21]), 0.011; in data set [4] (setting [22]), 0.018. The perc_bound in data set [4] (setting [18]) is recorded as 98.8%; in data set [4] (setting [19]), 97.9%; in data set [4] (setting [20]) it was 99.4%; in data set [4] (setting [21]), 98.9%; in data set [4] (setting [22]) it was 98.2%. Besides, the perc_free came to 1.2% in data set [4] (setting [18]); 2.13% in data set [4] (setting [19]); 0.571% in data set [4] (setting [20]); 1.06% in data set [4] (setting [21]); 1.83% in data set [4] (setting [22]). Moreover, the perc_recovered in data set [4] (setting [18]) was 99.93%; in data set [4] (setting [19]), 99.13%; in data set [4] (setting [20]), 99.19%; in data set [4] (setting [21]), 98.18%; in data set [4] (setting [22]), 90.47%. The “perc_inhibition (% inhibition of the binding of a ligand specific for each target)” value was determined as 7% in data set [5]; 10% in data set [6]; 5% in data set [8]; 57% in [9]; 21% in data set [10]; 28% in [11]. Moreover, the “perc_inhibition (% inhibition of the binding of a ligand specific for each target)” value in data set [12] came to 5%; in data set [13], 9%; in data set [14], 27%; in data set [15], 11%. Besides, the “perc_inhibition: % inhibition of control enzyme activity, PDE4D2 (h)” value in [7] stood at 20%.
`Cc1nn(C)cc1-c1cc2c(NC(c3ccc4c(c3)S(=O)(=O)CCC4)C(C)C)ncnc2[nH]1` (stereo not shown) [ASAP-0011446]: the “clearance (metabolic stability), in words” value in data set [1] (HLM/MLM) is “moderate-to-high clearance”. Further, the perc_remaining in data set [1] came out at 1.0%. For the same compound, the t_half in data set [1] turned out to be 6.1 min. In addition, in [1], the perc_remaining_no_cofactor came out at 113.0%. The compound also registered a microsomal CLint in data set [1] of 273 µL/min/mg. The inhibition at 10 µM in data set [5] (setting [23]) was 0%; in [6] (setting [23]), 5%; in [7] (read-out: perc_inhibition: % inhibition of control enzyme activity, PDE4D2 (h)), 43%; in data set [9] (setting [24]), 14%; in [11] (setting [23]), 28%; in [13] (setting [23]), -4%. The inhibition at 10 µM in [14] (setting [24]) was -2%. The “perc_inhibition (% inhibition of the binding of a ligand specific for each target)” value was 6% in data set [8], 12% in data set [10], 1% in [12] and -2% in data set [15]. Besides, the EC50 in data set [17] (setting [25]) is over 5 µM. For the same compound, the EC90 in [17] (setting [25]) was over 5 µM. Further, the perc_max_measured in data set [17] (Vero E6/TMPRSS2 MERS-CoV antiviral effect with P-gp inhibitor, maximum measured response of dose series) is 103.374% and 130.763%. Further, in data set [17] (Vero E6/TMPRSS2 MERS-CoV antiviral effect with P-gp inhibitor, minimum measured response of dose series), the perc_min_measured was 64.505% and 89.964%.

The record behind these values is doi:10.1101/2024.08.19.608619, “Discovery of potent SARS-CoV-2 nsp3 macrodomain inhibitors uncovers lack of translation to cellular antiviral response” (bioRxiv, 2024).
